Results published in patent EP0565593B1, “REDUCING PESTICIDAL INTERACTIONS IN CROPS” (priority 1990, dated 1992).

Assays:
[1] = test system: Corn; assay: Greenhouse test Procedure VII: biocide and antidote in furrow, herbicide POE (Examples 39-42, 48-50, 56-58; Tables 38-41, 47-49, 55-57); assay type: in vivo; settings: for % Inhibition Corn: Antidote + Biocide No. 1 in furrow
Method in brief: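 Corn seed was planted in greenhouse pots, with COUNTER 15G insecticide plus antidote granules applied in-furrow (e.g. 1.1 + 0.37 mg a.i./cm, or 227 g/305 m with acetone-applied safeners). About five days later, herbicides in water with 0.25% v/v X-77 were track-sprayed post-emergence at 187 L/ha. Plant response was scored eight days afterward, with two to four replicates.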

[2] = test system: RICE; assay: Multi-crop greenhouse test, soil-applied (Examples 65, 66; Tables 64, 65); assay type: in vivo; set-up: inhibition: dose or concentration left out as unconfirmed; settings: for inhibition / inhibition at 18 g/ha / inhibition at 70 g/ha / inhibition at 280 g/ha: Oryza sativa; for inhibition at 18 g/ha: Herb. No. 1 0.018 Kg/Ha alone; for inhibition at 70 g/ha: Herb. No. 1 0.07 Kg/Ha alone; for inhibition at 280 g/ha: Herb. No. 1 0.28 Kg/Ha alone
Procedure: (§1) Tests according to this invention in various crops indicate widespread application of the invention. In Examples 62-66 below are described tests with a variety of herbicides contacted with COUNTER® 15G in the presence and absence of MON-7400 (Antidote No. 12); MON-13900 (No. 1); MON-4660 (No. 16) and flurazole (No. 16). Those tests were conducted according to Procedures IV or V described above and illustrated further in other foregoing examples. Plants used in all tests were, for crops (as abbreviated in parentheses); cotton (COTT); soybean (SOBE); CORN, grain sorghum (GRSO); wheat (WHEA) and RICE, and the weeds giant foxtail (GIFT) and velvetleaf (VELE). The data in the tables below represent averages of two replications.
(§2) In this test the crops and weeds were planted 1.3 cm deep in 13.7 cm X 27.7 cm pans containing Dupo silt loam soil. The test safeners were applied in acetone solution and COUNTER 15G as dry granules to soil cover layers and incorporated by shaking in a bag. Treated cover layers were placed on seeded pans which were transferred to greenhouse benches and subirrigated. Herbicide was applied POE six (6) days after PPI initiation and observations of plant injury made ten (10) days later; results are shown in Table 61. The herbicide used in this example was BEACON (No. 8).
(§3) In another test in the several crops and weeds used in this test series, the herbicidal component was MON-12000 (No. 1); the other components were the same. the procedure used in this test was the same as that described in Example 62, modified to use a light overhead irrigation (about 0.32 cm/day) during days 4-7 of the test. Table 64 […]

[3] = test system: Velvetleaf (VELE); assay: as above; assay type: in vivo, Abutilon theophrasti; set-up: inhibition: dose or concentration left out as unconfirmed; settings: for inhibition / inhibition at 18 g/ha / inhibition at 70 g/ha / inhibition at 280 g/ha: Abutilon theophrasti; for inhibition at 18 g/ha: Herb. No. 1 0.018 Kg/Ha alone; for inhibition at 70 g/ha: Herb. No. 1 0.07 Kg/Ha alone; for inhibition at 280 g/ha: Herb. No. 1 0.28 Kg/Ha alone
Procedure: as §1, §2, §3

[4] = COUNTER 15G + BEACON/co-herbicide combinations, Example 56
[5] = in-furrow antidote, COUNTER 15G + sulfonamide herbicides, Table 41
[6] = Herbicide No. 1 0.14 Kg/Ha POE, 8 days after POE
[7] = Herbicide No. 4 0.17 Kg/Ha POE, 8 days after POE
[8] = Herbicide No. 5 0.07 Kg/Ha POE, 8 days after POE
[9] = Herbicide No. 7 0.56 Kg/Ha POE, 8 days after POE
[10] = Herbicide No. 9 0.009 Kg/Ha POE
[11] = Herbicide No. 10 0.002 Kg/Ha POE, 8 days after POE
[12] = Herbicide No. 15 0.0044 Kg/Ha POE, 8 days after POE
[13] = Herbicide No. 16 0.01 Kg/Ha POE
[14] = Herbicide No. 18 0.0044 Kg/Ha POE
[15] = Herbicide No. 19 0.28 Kg/Ha POE
[16] = Herbicide No. 21 0.14 Kg/Ha POE
[17] = Herbicide No. 23 0.0006 Kg/Ha POE
[18] = Table 64, Herb. No. 1 0.018 Kg/Ha + Biocide No. 1 8.96 Kg/Ha + Antidote 4.48 Kg/Ha
[19] = Table 64, Herb. No. 1 0.07 Kg/Ha + Biocide No. 1 8.96 Kg/Ha + Antidote 4.48 Kg/Ha
[20] = Table 64, Herb. No. 1 0.28 Kg/Ha + Biocide No. 1 8.96 Kg/Ha + Antidote 4.48 Kg/Ha
[21] = Table 65, Herb. No. 1 0.018 Kg/Ha + Biocide No. 1 8.96 Kg/Ha + Antidote 4.48 Kg/Ha
[22] = Table 65, Herb. No. 1 0.07 Kg/Ha + Biocide No. 1 8.96 Kg/Ha + Antidote 4.48 Kg/Ha
[23] = Table 65, Herb. No. 1 0.28 Kg/Ha + Biocide No. 1 8.96 Kg/Ha + Antidote 4.48 Kg/Ha
[24] = Table 64, Herb. No. 1 0.018 Kg/Ha + Biocide No. 1 8.96 Kg/Ha
[25] = Table 64, Herb. No. 1 0.07 Kg/Ha + Biocide No. 1 8.96 Kg/Ha
[26] = Table 64, Herb. No. 1 0.28 Kg/Ha + Biocide No. 1 8.96 Kg/Ha
[27] = Table 65, Herb. No. 1 0.018 Kg/Ha + Biocide No. 1 8.96 Kg/Ha
[28] = Table 65, Herb. No. 1 0.07 Kg/Ha + Biocide No. 1 8.96 Kg/Ha
[29] = Table 65, Herb. No. 1 0.28 Kg/Ha + Biocide No. 1 8.96 Kg/Ha

O=C(OCc1ccccc1)c1sc(Cl)nc1C(F)(F)F [Antidote No. 7, 5-Thiazolecarboxylic acid, 2-chloro-4-(trifluoromethyl)-, (phenylmethyl) ester]
corn injury [1, 4]: reduced corn injury | corn injury [1, 5]: significantly reduced

CC1(C)OC(c2ccco2)CN1C(=O)C(Cl)Cl (stereo not shown) [Antidote No. 1, Oxazolidine, 3-(dichloroacetyl)-2,2-dimethyl-5-(2-furanyl)-]
corn injury [1, 4]: reduced corn injury | safening, comparison ([1]; COUNTER/ACCENT, 160 ratio, Example 50): more effective than MON-7400 | corn injury [1, 5]: significantly reduced

COC(=O)COC(c1ccccc1)c1ccccc1 [compound 12]
% Inhibition Corn [1, 6]: 0% | % Inhibition Corn [1, 7]: 0% | % Inhibition Corn [1, 8]: 0% | % Inhibition Corn ([1]; Herbicide No. 6 0.01 Kg/Ha POE): 0% | % Inhibition Corn [1, 9]: 5% | % Inhibition Corn [1, 10]: 0% | % Inhibition Corn [1, 11]: 5% | % Inhibition Corn [1, 12]: 0% | % Inhibition Corn [1, 13]: 15% | % Inhibition Corn [1, 14]: 10% | % Inhibition Corn [1, 15]: 0% | % Inhibition Corn [1, 16]: 5% | % Inhibition Corn [1, 17]: 5% | % Inhibition RICE [2, 18]: 0% | % Inhibition RICE [2, 19]: 10% | % Inhibition RICE [2, 20]: 10% | % Inhibition RICE [2, 21]: 0% | % Inhibition RICE [2, 22]: 20% | % Inhibition RICE [2, 23]: 70% | % Inhibition VELE [3, 18]: 50% | % Inhibition VELE [3, 19]: 85% | % Inhibition VELE [3, 20]: 95% | % Inhibition VELE [3, 21]: 0% | % Inhibition VELE [3, 22]: 75% | % Inhibition VELE [3, 23]: 85%

N#CCOc1ccc(Cl)c2cccnc12 [compound 33]
% Inhibition Corn [1, 6]: 0% | % Inhibition Corn [1, 7]: 5% | % Inhibition Corn [1, 8]: 30% | % Inhibition Corn ([1]; Herbicide No. 6 0.01 Kg/Ha POE): 20% | % Inhibition Corn [1, 9]: 10% | % Inhibition Corn [1, 10]: 5% | % Inhibition Corn [1, 11]: 5% | % Inhibition Corn [1, 12]: 15% | % Inhibition Corn [1, 13]: 30% | % Inhibition Corn [1, 14]: 10% | % Inhibition Corn [1, 15]: 10% | % Inhibition Corn [1, 16]: 20% | % Inhibition Corn [1, 17]: 15%

COC(=O)c1c(Cl)nn(C)c1S(=O)(=O)NC(=O)Nc1nc(OC)cc(OC)n1 [Herbicide No. 1, N-[(4,6-dimethoxypyrimidin-2-yl)aminocarbonyl]-3-chloro-4-methoxycarbonyl-5-sulfonamide, reference compound]
inhibition [2, 24]: 0% | inhibition at 18 g/ha ([2]; Table 64): 0% | inhibition [2, 25]: 10% | inhibition at 70 g/ha ([2]; Table 64): 0% | inhibition [2, 26]: 25% | inhibition at 280 g/ha ([2]; Table 64): 40% | inhibition [2, 27]: 0% | inhibition at 18 g/ha ([2]; Table 65): 0% | inhibition [2, 28]: 25% | inhibition at 70 g/ha ([2]; Table 65): 40% | inhibition [2, 29]: 90% | inhibition at 280 g/ha ([2]; Table 65): 60% | inhibition [3, 24]: 75% | inhibition at 18 g/ha ([3]; Table 64): 70% | inhibition [3, 25]: 85% | inhibition at 70 g/ha ([3]; Table 64): 90% | inhibition [3, 26]: 100% | inhibition at 280 g/ha ([3]; Table 64): 100% | inhibition [3, 27]: 10% | inhibition at 18 g/ha ([3]; Table 65): 15% | inhibition [3, 28]: 80% | inhibition at 70 g/ha ([3]; Table 65): 80% | inhibition [3, 29]: 90% | inhibition at 280 g/ha ([3]; Table 65): 90%

COC(=O)COC(c1ccccc1)c1ccccc1 [Antidote No. 12, Acetic acid, (diphenylmethoxy)-, methyl ester]
corn injury [1, 4]: reduced corn injury | safening of corn injury ([1]; COUNTER 15G + sulfonamide herbicides POE, Table 41): 92-100% | safening effects ([1]; COUNTER 15G in furrow, POE sulfonylurea herbicides, Tables 38, 39): highest and most consistent safening effects | safener efficacy ([1]; COUNTER + PURSUIT/co-herbicide tank mixtures, Example 58): most efficacious safener | antidote efficacy ([1]; imidazolinone herbicides + COUNTER 15G, Table 40): most efficacious antidote | corn injury [1, 5]: significantly reduced
